# Measured values from US20230381321A1, “CAMPTOTHECIN CONJUGATES” (priority 2022, published 2023).
# System: renal carcinoma cells (786-O)
# Assay: In vitro potency (CellTiter-Glo, 96 h) on 786-O
# Type: cell-based
# Conditions: CPT free drugs; CellTiter-Glo after 96 h exposure; read-out: 786-O IC50
# In short: (§1)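 Log-phase cells were seeded 24 h in RPMI 1640 with 20% FBS, then exposed to serially diluted […] for 96 h. Growth inhibition was measured by CellTiter-Glo luminescence.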
row,SMILES,IC50 [nM]
1,"CC[C@@]1(O)C(=O)OCc2c1cc1n(c2=O)Cc2c-1nc1cc3c(cc1c2CN)C(C)CO3 (single isomer, unassigned) [Compound 11a]",15

# Same assay, conditions: Homo sapiens, 786-0, 96 h, CPT free drugs; CellTiter-Glo after 96 h exposure; read-out: 786-O IC50
row,SMILES,IC50 [nM]
1,C/C=C(\C)c1c(C)c(F)cc2nc3c(c(CN)c12)Cn1c-3cc2c(c1=O)COC(=O)[C@]2(O)CC [Compound 6a],6
2,CC[C@@]1(O)C(=O)OCc2c1cc1n(c2=O)Cc2c-1nc1ccc3c(c1c2CN)COC3 [Compound 2aq],11

# System: pancreatic cancer cells (BxPC3)
# Assay: In vitro potency (CellTiter-Glo, 96 h) on BxPC3
# Type: cell-based
# Conditions: CPT free drugs; CellTiter-Glo after 96 h exposure; read-out: BxPC3 IC50
# In short: as §1
row,SMILES,IC50 [nM]
1,"CC[C@@]1(O)C(=O)OCc2c1cc1n(c2=O)Cc2c-1nc1cc3c(cc1c2CN)C(C)CO3 (single isomer, unassigned) [Compound 11a]",23

# Same assay, conditions: Homo sapiens, BXPC-3, 96 h, CPT free drugs; CellTiter-Glo after 96 h exposure; read-out: BxPC3 IC50
row,SMILES,IC50 [nM]
1,C/C=C(\C)c1c(C)c(F)cc2nc3c(c(CN)c12)Cn1c-3cc2c(c1=O)COC(=O)[C@]2(O)CC [Compound 6a],8
2,CC[C@@]1(O)C(=O)OCc2c1cc1n(c2=O)Cc2c-1nc1ccc3c(c1c2CN)COC3 [Compound 2aq],27

# System: anaplastic large cell lymphoma cells (DELBVR)
# Assay: In vitro potency (CellTiter-Glo, 96 h) on DELBVR
# Type: cell-based
# Conditions: 96 h, CPT free drugs; CellTiter-Glo after 96 h exposure; read-out: DELBVR IC50
# In short: as §1
row,SMILES,IC50 [nM]
1,C/C=C(\C)c1c(C)c(F)cc2nc3c(c(CN)c12)Cn1c-3cc2c(c1=O)COC(=O)[C@]2(O)CC [Compound 6a],3
2,CC[C@@]1(O)C(=O)OCc2c1cc1n(c2=O)Cc2c-1nc1ccc3c(c1c2CN)COC3 [Compound 2aq],3

# Same assay, conditions: CPT free drugs; CellTiter-Glo after 96 h exposure; read-out: DELBVR IC50
row,SMILES,IC50 [nM]
1,"CC[C@@]1(O)C(=O)OCc2c1cc1n(c2=O)Cc2c-1nc1cc3c(cc1c2CN)C(C)CO3 (single isomer, unassigned) [Compound 11a]",4

# System: B-lymphocyte cancer cells (SU-DHL4)
# Assay: In vitro potency (CellTiter-Glo, 96 h) on SU-DHL4
# Type: cell-based
# Conditions: CPT free drugs; CellTiter-Glo after 96 h exposure; read-out: SU-DHL-4 IC50
# In short: as §1
row,SMILES,IC50 [nM]
1,"CC[C@@]1(O)C(=O)OCc2c1cc1n(c2=O)Cc2c-1nc1cc3c(cc1c2CN)C(C)CO3 (single isomer, unassigned) [Compound 11a]",3

# Same assay, conditions: Homo sapiens, SU-DHL-4, 96 h, CPT free drugs; CellTiter-Glo after 96 h exposure; read-out: SU-DHL-4 IC50
row,SMILES,IC50 [nM]
1,C/C=C(\C)c1c(C)c(F)cc2nc3c(c(CN)c12)Cn1c-3cc2c(c1=O)COC(=O)[C@]2(O)CC [Compound 6a],2
2,CC[C@@]1(O)C(=O)OCc2c1cc1n(c2=O)Cc2c-1nc1ccc3c(c1c2CN)COC3 [Compound 2aq],5

# System: acute myeloid leukemia cells (MOLM-13)
# Assay: In vitro potency (CellTiter-Glo, 96 h) on MOLM-13
# Type: cell-based
# Conditions: CPT free drugs; CellTiter-Glo after 96 h exposure; read-out: MOLM-13 IC50
# In short: as §1
row,SMILES,IC50 [nM]
1,"CC[C@@]1(O)C(=O)OCc2c1cc1n(c2=O)Cc2c-1nc1cc3c(cc1c2CN)C(C)CO3 (single isomer, unassigned) [Compound 11a]",14

# Same assay, conditions: Homo sapiens, MOLM-13, 96 h, CPT free drugs; CellTiter-Glo after 96 h exposure; read-out: MOLM-13 IC50
row,SMILES,IC50 [nM]
1,C/C=C(\C)c1c(C)c(F)cc2nc3c(c(CN)c12)Cn1c-3cc2c(c1=O)COC(=O)[C@]2(O)CC [Compound 6a],4
2,CC[C@@]1(O)C(=O)OCc2c1cc1n(c2=O)Cc2c-1nc1ccc3c(c1c2CN)COC3 [Compound 2aq],39

# System: anaplastic large cell lymphoma cells (Karpas299)
# Assay: In vitro potency (CellTiter-Glo, 96 h) on Karpas299
# Type: cell-based
# Conditions: CPT free drugs; CellTiter-Glo after 96 h exposure; read-out: Karpas299 IC50
# In short: as §1
row,SMILES,IC50 [nM]
1,"CC[C@@]1(O)C(=O)OCc2c1cc1n(c2=O)Cc2c-1nc1cc3c(cc1c2CN)C(C)CO3 (single isomer, unassigned) [Compound 11a]",13

# Same assay, conditions: Homo sapiens, KARPAS-299, 96 h, CPT free drugs; CellTiter-Glo after 96 h exposure; read-out: Karpas299 IC50
row,SMILES,IC50 [nM]
1,C/C=C(\C)c1c(C)c(F)cc2nc3c(c(CN)c12)Cn1c-3cc2c(c1=O)COC(=O)[C@]2(O)CC [Compound 6a],5
2,CC[C@@]1(O)C(=O)OCc2c1cc1n(c2=O)Cc2c-1nc1ccc3c(c1c2CN)COC3 [Compound 2aq],7

# System: breast cancer cells (MDA-MB-231)
# Assay: In vitro potency (CellTiter-Glo, 96 h) on MDA-MB-231
# Type: cell-based
# Conditions: CPT free drugs; CellTiter-Glo after 96 h exposure; read-out: MDAMB 231 IC50
# In short: as §1
row,SMILES,IC50 [nM]
1,"CC[C@@]1(O)C(=O)OCc2c1cc1n(c2=O)Cc2c-1nc1cc3c(cc1c2CN)C(C)CO3 (single isomer, unassigned) [Compound 11a]",100

# Same assay, conditions: Homo sapiens, MDA-MB-231, 96 h, CPT free drugs; CellTiter-Glo after 96 h exposure; read-out: MDAMB 231 IC50
row,SMILES,IC50 [nM]
1,C/C=C(\C)c1c(C)c(F)cc2nc3c(c(CN)c12)Cn1c-3cc2c(c1=O)COC(=O)[C@]2(O)CC [Compound 6a],7
2,CC[C@@]1(O)C(=O)OCc2c1cc1n(c2=O)Cc2c-1nc1ccc3c(c1c2CN)COC3 [Compound 2aq],12

# System: anaplastic large cell lymphoma cells (DEL)
# Assay: In vitro potency (CellTiter-Glo, 96 h) on DEL
# Type: cell-based
# Conditions: 96 h, CPT free drugs; CellTiter-Glo after 96 h exposure; read-out: DEL IC50
# In short: as §1
row,SMILES,IC50 [nM]
1,C/C=C(\C)c1c(C)c(F)cc2nc3c(c(CN)c12)Cn1c-3cc2c(c1=O)COC(=O)[C@]2(O)CC [Compound 6a],2
2,CC[C@@]1(O)C(=O)OCc2c1cc1n(c2=O)Cc2c-1nc1ccc3c(c1c2CN)COC3 [Compound 2aq],2

# Same assay, conditions: CPT free drugs; CellTiter-Glo after 96 h exposure; read-out: DEL IC50
row,SMILES,IC50 [nM]
1,"CC[C@@]1(O)C(=O)OCc2c1cc1n(c2=O)Cc2c-1nc1cc3c(cc1c2CN)C(C)CO3 (single isomer, unassigned) [Compound 11a]",2

# System: melanoma cells (A2058)
# Assay: In vitro potency (CellTiter-Glo, 96 h) on A2058
# Type: cell-based
# Conditions: CPT free drugs; CellTiter-Glo after 96 h exposure; read-out: A2058 IC50
# Experimental: (§2) In vitro potency was assessed on multiple cancer cell lines. All cell lines were authenticated by STR profiling at IDEXX Bioresearch and cultured for no more than 2 months after resuscitation. Cells cultured in log-phase growth were seeded for 24 hours in 96-well plates containing […] RPMI 1640 supplemented with 20% FBS. Serial dilutions of antibody-drug conjugates in cell culture media were prepared at 4x working concentrations, and 50 μL of each dilution was added to the 96-well plates. Following addition of test articles, cells were incubated with test articles for 4 days at […]. After 96 hours, growth inhibition was assessed by CellTiterGlo® (Promega, Madison, WI) and luminescence was measured on a plate reader.
# (§3) Cell viability was determined by CellTiter-Glo staining after 96h exposure to ADC. ND=Not Determined. In the following tables, “Ex_” refers to a drug linker number. For example, “Ag4-Ex_4a” refers to a conjugate of an Ag4 antibody with drug linker 4a.
row,SMILES,IC50 [nM]
1,"CC[C@@]1(O)C(=O)OCc2c1cc1n(c2=O)Cc2c-1nc1cc3c(cc1c2CN)C(C)CO3 (single isomer, unassigned) [Compound 11a]",5

# Same assay, conditions: Homo sapiens, A2058, 96 h, CPT free drugs; CellTiter-Glo after 96 h exposure; read-out: A2058 IC50
row,SMILES,IC50 [nM]
1,C/C=C(\C)c1c(C)c(F)cc2nc3c(c(CN)c12)Cn1c-3cc2c(c1=O)COC(=O)[C@]2(O)CC [Compound 6a],5
2,CC[C@@]1(O)C(=O)OCc2c1cc1n(c2=O)Cc2c-1nc1ccc3c(c1c2CN)COC3 [Compound 2aq],18

# System: not listed separately
# Assay: In vitro potency (CellTiter-Glo, 96 h) on Ls174T
# Type: cell-based
# Conditions: CPT free drugs; CellTiter-Glo after 96 h exposure; read-out: Ls174T IC50
# In short: as §1
row,SMILES,IC50 [nM]
1,"CC[C@@]1(O)C(=O)OCc2c1cc1n(c2=O)Cc2c-1nc1cc3c(cc1c2CN)C(C)CO3 (single isomer, unassigned) [Compound 11a]",> 1000

# Same assay, conditions: Homo sapiens, LS174T; CPT free drugs; CellTiter-Glo after 96 h exposure; read-out: Ls174T IC50
row,SMILES,IC50 [nM]
1,C/C=C(\C)c1c(C)c(F)cc2nc3c(c(CN)c12)Cn1c-3cc2c(c1=O)COC(=O)[C@]2(O)CC [Compound 6a],12
2,CC[C@@]1(O)C(=O)OCc2c1cc1n(c2=O)Cc2c-1nc1ccc3c(c1c2CN)COC3 [Compound 2aq],12

# System: Hodgkin's lymphoma cells (L540cy)
# Assay: In vitro potency (CellTiter-Glo, 96 h) on L540cy
# Type: cell-based
# Conditions: CPT free drugs; CellTiter-Glo after 96 h exposure; read-out: L540cy IC50
# In short: as §1
row,SMILES,IC50 [nM]
1,"CC[C@@]1(O)C(=O)OCc2c1cc1n(c2=O)Cc2c-1nc1cc3c(cc1c2CN)C(C)CO3 (single isomer, unassigned) [Compound 11a]",6

# Same assay, conditions: L540cy, 96 h, CPT free drugs; CellTiter-Glo after 96 h exposure; read-out: L540cy IC50
row,SMILES,IC50 [nM]
1,C/C=C(\C)c1c(C)c(F)cc2nc3c(c(CN)c12)Cn1c-3cc2c(c1=O)COC(=O)[C@]2(O)CC [Compound 6a],4
2,CC[C@@]1(O)C(=O)OCc2c1cc1n(c2=O)Cc2c-1nc1ccc3c(c1c2CN)COC3 [Compound 2aq],4

# System: non-small-cell lung cancer cells (Calu1)
# Assay: In vitro potency (CellTiter-Glo, 96 h) on Calu1
# Type: cell-based
# Conditions: CPT free drugs; CellTiter-Glo after 96 h exposure; read-out: Calu1 IC50
# Experimental: as §2, §3
row,SMILES,IC50 [nM]
1,"CC[C@@]1(O)C(=O)OCc2c1cc1n(c2=O)Cc2c-1nc1cc3c(cc1c2CN)C(C)CO3 (single isomer, unassigned) [Compound 11a]",131

# Same assay, conditions: Homo sapiens, Calu-1, 96 h, CPT free drugs; CellTiter-Glo after 96 h exposure; read-out: Calu1 IC50
row,SMILES,IC50 [nM]
1,C/C=C(\C)c1c(C)c(F)cc2nc3c(c(CN)c12)Cn1c-3cc2c(c1=O)COC(=O)[C@]2(O)CC [Compound 6a],21
2,CC[C@@]1(O)C(=O)OCc2c1cc1n(c2=O)Cc2c-1nc1ccc3c(c1c2CN)COC3 [Compound 2aq],1
